Assay results from patent publication US11053204B2, “Pyrimidinyloxy benzene derivatives as herbicides” (FMC Corporation, priority 2015, dated 2021).

Experiments:
Assay type in all cases: in vivo
[1] = system: Italian ryegrass (Lolium multiflorum); test: Test A preemergence, visual injury rating; conditions: 0 to 100 scale (0 no effect, 100 complete control)
Method in brief: (§1)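 Injury scores run from 0, no effect, to 100, complete control, judged by eye against untreated plants roughly 10 days after treatment. Chemicals carried a surfactant in a non-phytotoxic solvent and went onto loam–sand soil preemergence or onto one- to two-leaf seedlings postemergence.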

[2] = system: barnyardgrass (Echinochloa crus-galli); test: Test A preemergence, visual injury rating; conditions: 0 to 100 scale (0 no effect, 100 complete control)
Method in brief: as §1

[3] = system: giant foxtail (Setaria faberii); test: Test A preemergence, visual injury rating; conditions: 0 to 100 scale (0 no effect, 100 complete control)
Method in brief: as §1

[4] = system: ragweed (common ragweed, Ambrosia elatior); test: Test A preemergence, visual injury rating; conditions: 0 to 100 scale (0 no effect, 100 complete control)
Method in brief: as §1

[5] = system: blackgrass (Alopecurus myosuroides); test: Test C preemergence, plant response rating; conditions: Preemergence
Method in brief: (§2)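 Pre-emergence: seeds sown in loam soil–sand blend or silt loam and sprayed with test chemicals in a non-phytotoxic solvent mixture with surfactant. Post-emergence: plants 2 to 18 cm (1- to 4-leaf stage) in peat-based potting medium, same formulation. Greenhouse 13 to 15 d; visual rating 0 (no effect) to 100 (complete control) versus controls.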

corn (Zea mays) = test: Test C preemergence, plant response rating; conditions: Preemergence
Method in brief: as §2

[6] = system: crabgrass, large (large crabgrass, Digitaria sanguinalis); test: Test C preemergence, plant response rating; conditions: Preemergence
Method in brief: as §2

[7] = system: foxtail, giant (giant foxtail, Setaria faberii); test: Test C preemergence, plant response rating; conditions: Preemergence
Method in brief: as §2

[8] = system: lambsquarters (Chenopodium album); test: Test C preemergence, plant response rating; conditions: Preemergence
Method in brief: as §2

[9] = system: morningglory (Ipomoea coccinea); test: Test C preemergence, plant response rating; conditions: Preemergence
Method in brief: as §2

[10] = system: nutsedge, yellow (yellow nutsedge, Cyperus esculentus); test: Test C preemergence, plant response rating; conditions: Preemergence
Method in brief: as §2

[11] = system: oilseed rape (Brassica napus); test: Test C preemergence, plant response rating; conditions: Preemergence
Method in brief: as §2

[12] = system: ragweed (common ragweed, Ambrosia elatior); test: Test C preemergence, plant response rating; conditions: Preemergence
Method in brief: as §2

[13] = system: ryegrass, Italian (Italian ryegrass, Lolium multiflorum); test: Test C preemergence, plant response rating; conditions: Preemergence
Method in brief: as §2

soybean (Glycine max) = test: Test C preemergence, plant response rating; conditions: Preemergence
Method in brief: as §2

[14] = system: velvetleaf (Abutilon theophrasti); test: Test C preemergence, plant response rating; conditions: Preemergence
Method in brief: as §2

[15] = system: waterhemp (common waterhemp, Amaranthus rudis); test: Test C preemergence, plant response rating; conditions: Preemergence
Method in brief: as §2

[16] = system: wheat (winter wheat, Triticum aestivum); test: Test C preemergence, plant response rating; conditions: Preemergence
Method in brief: as §2

C=C(Br)COC(=O)c1c(Br)cccc1Oc1ncc(Cl)cn1 [Compound 61]
30: Ryegrass, Italian plant response rating ([1]; 125 g ai/ha) | Plant response rating, Ragweed ([12]; 125 g ai/ha, scale of 0 to 100)
5: Plant response rating, Blackgrass ([5]; 125 g ai/ha, scale of 0 to 100) | Plant response rating, Lambsquarters ([8]; 16 g ai/ha, scale 0 to 100) | Plant response rating, Ragweed ([12]; 62 g ai/ha, scale 0 to 100) | Plant response rating, Ryegrass, Italian ([13]; 125 g ai/ha, scale of 0 to 100) | Plant response rating, Velvetleaf ([14]; 125 g ai/ha, scale of 0 to 100) | Plant response rating, Velvetleaf ([14]; 31 g ai/ha, scale 0 to 100) | Plant response rating, Velvetleaf ([14]; 62 g ai/ha, scale 0 to 100) | Plant response rating, Wheat ([16]; 62 g ai/ha, scale 0 to 100)
90: Plant response rating, Crabgrass, Large ([6]; 125 g ai/ha, scale of 0 to 100) | Plant response rating, Waterhemp ([15]; 62 g ai/ha, scale 0 to 100)
80: Ryegrass, Italian plant response rating ([1]; 500 g ai/ha)
65: Plant response rating, Foxtail, Giant ([7]; 125 g ai/ha, scale of 0 to 100)
75: Plant response rating, Crabgrass, Large ([6]; 62 g ai/ha, scale of 0 to 100) | Plant response rating, Waterhemp ([15]; 31 g ai/ha, scale 0 to 100)
15: Plant response rating, Lambsquarters ([8]; 31 g ai/ha, scale 0 to 100)
20: Ragweed plant response rating ([4]; 500 g ai/ha) | Plant response rating, Soybean (soybean (Glycine max); 31 g ai/ha, scale 0 to 100) | Plant response rating, Soybean (soybean (Glycine max); 62 g ai/ha, scale 0 to 100)
60: Plant response rating, Foxtail, Giant ([7]; 62 g ai/ha, scale of 0 to 100) | Plant response rating, Lambsquarters ([8]; 125 g ai/ha, scale of 0 to 100)
100: Barnyardgrass plant response rating ([2]; 500 g ai/ha) | Foxtail, Giant plant response rating ([3]; 125 g ai/ha) | Foxtail, Giant plant response rating ([3]; 500 g ai/ha) | Plant response rating, Waterhemp ([15]; 125 g ai/ha, scale of 0 to 100)
0: Ragweed plant response rating ([4]; 125 g ai/ha) | Plant response rating, Blackgrass ([5]; 62 g ai/ha, scale of 0 to 100) | Plant response rating, Blackgrass ([5]; 16 g ai/ha, scale 0 to 100) | Plant response rating, Blackgrass ([5]; 31 g ai/ha, scale 0 to 100) | Plant response rating, Corn (corn (Zea mays); 125 g ai/ha, scale of 0 to 100) | Plant response rating, Corn (corn (Zea mays); 16 g ai/ha, scale 0 to 100) | Plant response rating, Corn (corn (Zea mays); 31 g ai/ha, scale 0 to 100) | Plant response rating, Crabgrass, Large ([6]; 16 g ai/ha, scale 0 to 100) | Plant response rating, Foxtail, Giant ([7]; 16 g ai/ha, scale 0 to 100) | Plant response rating, Morningglory ([9]; 125 g ai/ha, scale of 0 to 100) | Plant response rating, Morningglory ([9]; 16 g ai/ha, scale 0 to 100) | Plant response rating, Morningglory ([9]; 31 g ai/ha, scale 0 to 100) | Plant response rating, Morningglory ([9]; 62 g ai/ha, scale 0 to 100) | Plant response rating, Nutsedge, Yellow ([10]; 125 g ai/ha, scale of 0 to 100) | Plant response rating, Nutsedge, Yellow ([10]; 16 g ai/ha, scale 0 to 100) | Plant response rating, Nutsedge, Yellow ([10]; 31 g ai/ha, scale 0 to 100) | Plant response rating, Nutsedge, Yellow ([10]; 62 g ai/ha, scale 0 to 100) | Plant response rating, Oilseed Rape ([11]; 16 g ai/ha, scale 0 to 100) | Plant response rating, Oilseed Rape ([11]; 31 g ai/ha, scale 0 to 100) | Plant response rating, Oilseed Rape ([11]; 62 g ai/ha, scale 0 to 100) | Plant response rating, Ragweed ([12]; 16 g ai/ha, scale 0 to 100) | Plant response rating, Ragweed ([12]; 31 g ai/ha, scale 0 to 100) | Plant response rating, Ryegrass, Italian ([13]; 16 g ai/ha, scale 0 to 100) | Plant response rating, Ryegrass, Italian ([13]; 31 g ai/ha, scale 0 to 100) | Plant response rating, Ryegrass, Italian ([13]; 62 g ai/ha, scale 0 to 100) | Plant response rating, Velvetleaf ([14]; 16 g ai/ha, scale 0 to 100) | Plant response rating, Wheat ([16]; 16 g ai/ha, scale 0 to 100) | Plant response rating, Wheat ([16]; 31 g ai/ha, scale 0 to 100)
10: Plant response rating, Corn (corn (Zea mays); 62 g ai/ha, scale of 0 to 100) | Plant response rating, Crabgrass, Large ([6]; 31 g ai/ha, scale 0 to 100) | Plant response rating, Oilseed Rape ([11]; 125 g ai/ha, scale of 0 to 100) | Plant response rating, Soybean (soybean (Glycine max); 125 g ai/ha, scale of 0 to 100) | Plant response rating, Wheat ([16]; 125 g ai/ha, scale of 0 to 100)
50: Barnyardgrass plant response rating ([2]; 125 g ai/ha) | Plant response rating, Foxtail, Giant ([7]; 31 g ai/ha, scale 0 to 100) | Plant response rating, Lambsquarters ([8]; 62 g ai/ha, scale 0 to 100) | Plant response rating, Waterhemp ([15]; 16 g ai/ha, scale 0 to 100)
